Here are results for 6 compounds from paper PMC1950704 (Respiratory Research, 2007).

The nature of series [1]: Stability in fresh human lung tissue in vitro, with and without esterase inhibitor dichlorvos. Format: in vitro ADME. The following applies: 37°C. On the procedure: Incubations were performed in the presence and absence of dichlorvos (1 mg/mL). Over 24 hours, samples of 1.0 mL tissue-free supernatant were taken and immediately stored at -20°C until analysis. The incubation medium was replenished by buffer which was pre-temperated to 37°C. In case of incubations with dichlorvos the medium used for replenishment contained the esterase inhibitor.
(§1) Samples of 1.0 mL (tissue desorption/stability) or 2.0 mL (tissue adsorption) were mixed with 0.1 mL internal standard solution and extracted twice with 3 mL diethylether for 30 min, using a roller mixer, followed by centrifugation (20°C) for 5 min. The organic phase was separated and evaporated to dryness under a gentle stream of nitrogen at 25°C. The resulting residue was reconstituted in 0.2 mL mobile phase. […] Linearity was given from 10–500 ng/mL glucocorticoid, coefficients of correlation of the calibration curves were at least 0.99.
The HPLC system was a Waters HPLC (Milford, MA) consisting of a 1525 binary pump, an 717plus autosampler and 2487 dual wavelength absorbance detector set at the detection wavelength of 254 nm. Data collection and integration were accomplished using Breeze™ software version 3.2. Analysis was performed on a Symmetry C18 column (150 × 4.6 mm I.D., 5 μm particle size, Waters, MA). […] The lower limit of quantitation was 10 ng/mL for all glucocorticoids except ciclesonide (20 ng/mL).

A short description of series [2]: Control experiment for non-specific adsorption to glass incubation vials (buffer without tissue). Format: physicochemical. The following applies: 480 min at 37°C, Krebs-Ringer-HEPES buffer; for non-specific binding to glass incubation vials: no tissue. Here is the method:
Lung tissue was washed in Krebs-Ringer-HEPES buffer (pH 7.4) and sliced into pieces of 1 mm^3. For each binding experiment approximately 0.5 g of lung tissue was used. Adsorption of glucocorticoids (0.3 μg/mL) to human lung tissue was determined as described earlier. Briefly, lung tissue pieces were suspended under gentle shaking for 1 h at 37°C in 20 ml Krebs-Ringer-HEPES buffer containing 0.3 μg/ml of the glucocorticoid. 2.0 mL samples were taken and stored at -20°C until analysis. The volume withdrawn was replaced with fresh buffer of 37°C. Only glass lab ware was used for these experiments to avoid any non-specific binding effects of the highly lipophilic compounds to plastic material. […]
as §1
(§2) The HPLC system was a Waters HPLC (Milford, MA) consisting of a 1525 binary pump, an 717plus autosampler and 2487 dual wavelength absorbance detector set at the detection wavelength of 254 nm. Data collection and integration were accomplished using Breeze™ software version 3.2. Analysis was performed on a Symmetry C18 column (150 × 4.6 mm I.D., 5 μm particle size, Waters, MA). Typically, 20 μL of sample were injected and separated at a flow rate of 1 mL/min. Gradient elution was performed using water (containing 0.2 % (v/v) acetic acid) and ACN, starting at 60:40 (v/v) water/ACN increasing linearly to 29:71 (v/v) water/ACN by 30 min. The assay was accurate and reproducible. The lower limit of quantitation was 10 ng/mL for all glucocorticoids except ciclesonide (20 ng/mL).

Series [3] in a line: Adsorption of glucocorticoids to human lung tissue. The format is in vitro ADME. To be noted: 37°C; for tissue binding (concentration in human lung tissue) after adsorption: 60 min incubation, 0.3 μg/mL glucocorticoid in buffer, before incubation in plasma. Here is the method:
Lung tissue was washed in Krebs-Ringer-HEPES buffer (pH 7.4) and sliced into pieces of 1 mm^3. For each binding experiment approximately 0.5 g of lung tissue was used. Adsorption of glucocorticoids (0.3 μg/mL) to human lung tissue was determined as described earlier. Briefly, lung tissue pieces were suspended under gentle shaking for 1 h at 37°C in 20 ml Krebs-Ringer-HEPES buffer containing 0.3 μg/ml of the glucocorticoid. 2.0 mL samples were taken and stored at -20°C until analysis. The volume withdrawn was replaced with fresh buffer of 37°C. Only glass lab ware was used for these experiments to avoid any non-specific binding effects of the highly lipophilic compounds to plastic material. For control, blank samples with glucocorticoid-containing buffer, but no tissue, were incubated under the same experimental conditions (1 h at 37°C, in Krebs-Ringer-HEPES buffer) and analyzed for non-specific adsorption of the glucocorticoids to the glass tubes.
as §1, §2

Series [4] is described as follows: Desorption of glucocorticoids from human lung tissue into human plasma. Format: in vitro ADME. The following applies: for concentration remaining in human lung tissue after desorption: after 60 min equilibration with human plasma at 37°C; for retention / tissue binding in human lung tissue (in words): in vitro. On the procedure:
Desorption of glucocorticoids to human lung tissue was determined as described earlier. Briefly, lung tissue (1.0 g) was saturated with glucocorticoids for 1 h at 37°C by shaking in 40 mL Krebs-Ringer-HEPES buffer containing 0.3 μg/mL of the respective glucocorticoid. After incubation tissue was washed with 2 mL buffer and transferred into 10.0 mL human plasma (37°C). Again, only glass lab ware was used for these experiments to exclude any non-specific binding effects of the highly lipophilic compounds to plastic material. Samples of 1.0 mL were taken at defined time points. The volume was replaced with fresh plasma at 37°C. Samples were stored at -20°C until further analysis.
as §1, §2

Series [5] can be described thus: Binding to human nasal tissue. Format: in vitro ADME. The following applies: single experiment, tissue pooled from 3 donors; data not shown.
The subject of series [6] is glucocorticoid receptor (rat receptor data). Further details: method as in PMID 14718604. To be noted: reference dexamethasone = 100, ref [16]; cited from earlier work.
Series [7] has as its target T1, human lung glucocorticoid receptor (Homo sapiens, UniProt P04150).
T1 sequence (P04150 1-777): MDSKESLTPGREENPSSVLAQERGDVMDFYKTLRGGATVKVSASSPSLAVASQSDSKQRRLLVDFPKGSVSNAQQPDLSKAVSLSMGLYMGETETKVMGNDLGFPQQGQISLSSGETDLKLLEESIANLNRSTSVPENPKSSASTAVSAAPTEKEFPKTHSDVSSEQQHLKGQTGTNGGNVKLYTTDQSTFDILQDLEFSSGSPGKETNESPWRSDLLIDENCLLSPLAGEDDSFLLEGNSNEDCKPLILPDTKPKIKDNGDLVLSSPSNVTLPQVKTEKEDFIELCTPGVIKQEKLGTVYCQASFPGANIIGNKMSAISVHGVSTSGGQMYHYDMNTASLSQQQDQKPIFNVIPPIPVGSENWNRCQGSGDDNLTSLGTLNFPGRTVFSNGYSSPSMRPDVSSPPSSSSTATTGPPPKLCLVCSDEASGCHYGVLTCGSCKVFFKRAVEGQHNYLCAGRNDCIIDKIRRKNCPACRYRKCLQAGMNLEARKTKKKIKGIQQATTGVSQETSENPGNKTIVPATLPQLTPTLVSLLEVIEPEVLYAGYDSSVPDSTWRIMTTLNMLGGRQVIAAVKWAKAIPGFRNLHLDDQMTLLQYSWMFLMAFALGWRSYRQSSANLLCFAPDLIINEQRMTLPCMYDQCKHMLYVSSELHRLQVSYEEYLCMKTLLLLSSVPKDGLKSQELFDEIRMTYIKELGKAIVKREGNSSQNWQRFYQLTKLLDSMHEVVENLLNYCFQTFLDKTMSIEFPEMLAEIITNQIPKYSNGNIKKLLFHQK
The series can be described thus: Kinetic receptor binding experiments (association and dissociation kinetics) in human lung cytosol. To be noted: 20°C, mean and mean deviation of the mean, 3-7 experiments. Further details: we isolated human lung glucocorticoid receptors from human lung tissue; from tissue; host or cells: human lung tissue cytosol (105,000 x g supernatant).
Protocol: Human lung tissue was deep frozen immediately after resection and stored in liquid nitrogen. Frozen tissue was pulverized and homogenized in three aliquots buffer solution A with an Ultra Turrax mixer (Janke and Kunkel, Staufen, Germany) in an ice bath. […] The cytosol was stored in aliquots at -70°C.
The receptor binding experiments were performed according to the procedure described earlier [1] based on [7-9].
The assay for total binding (Bt in [mol/L]) was carried out accordingly, but the unlabelled glucocorticoid was replaced by buffer solution G. To determine the total [^3H]-glucocorticoid concentration (T), 20 μL of the mixture were used for scintillation counting. […]
The Zt-values were plotted against time t and a linear regression was performed. The slope of the straight line (kAss = k1) and the coefficient of correlation r were calculated based on a minimum of four data points. […]
The Bs,t-values were plotted semi-logarithmical against time t and a linear regression was performed. The slope of the straight line (kDiss = k-1) and the coefficient of correlation r were calculated based on a minimum of six data points.
Equilibrium dissociation constant (KD) was calculated for each glucocorticoid based on association and dissociation rate constants:

Series [8] deals with T1, human lung glucocorticoid receptor. To be noted: from previous experiments of the authors; ref [3]; cited from earlier work.

The structures appear in SMILES notation. “Also recorded” adds a separate entry of the source. Read-outs that look alike come from different tables or passages of the source.

As for `C[C@@H]1C[C@H]2[C@@H]3C[C@H](F)C4=CC(=O)C=C[C@]4(C)[C@@]3(F)[C@@H](O)C[C@]2(C)[C@@]1(OC(=O)c1ccco1)C(=O)SCF` [FF, fluticasone furoate], in series [1] (0.3 μg/mL, 24 hours, presence and absence of dichlorvos, HPLC of supernatant), the “stability in human lung tissue (in words)” value was “no indication of instability or chemical modification; also recorded: non-specific esterase-catalyzed hydrolysis of FF did not occur; also recorded: no degradation or metabolism”. In addition, in series [2], the “non-specific binding to glass incubation vials” value (from here on “non-specific binding”) is “no non-specific binding; also recorded: No adsorption”. Besides, the “tissue binding (concentration in human lung tissue) after adsorption” value (“tissue binding … after adsorption” for short) in series [3] was found to be 4.18 ± 0.16 ng/mg. Also, the “time to complete adsorption to human lung tissue” value in series [3] (in vitro, data not shown) is recorded as “about 20 min”. Besides, in series [4], the “concentration remaining in human lung tissue after desorption” value (“concentration remaining” below) was found to be 1.21 ± 0.23 ng/mg and the “retention / tissue binding in human lung tissue (in words)” value (shortened to “retention / tissue binding”) is recorded as “pronounced retention”. Moreover, the “binding to human nasal tissue compared with FP” value in series [5] is listed as “greater binding”.

On to `C[C@]12C=CC(=O)C=C1CC[C@@H]1[C@@H]2[C@@H](O)C[C@@]2(C)[C@H]1C[C@H]1O[C@@H](C3CCCCC3)O[C@]12C(=O)CO` [des-Cicle, desisobutyryl-ciclesonide], for which, in series [6], the “RRA (relative receptor affinity)” value is 1212.

Consider `C[C@@H]1C[C@H]2[C@@H]3CCC4=CC(=O)C=C[C@]4(C)[C@@]3(F)[C@@H](O)C[C@]2(C)[C@@]1(O)C(=O)CO` [Dexa, dexamethasone], for which the “association rate constant k1” value in series [7] ([3H]-glucocorticoid) is 10.53 ± 0.35 × 10^5 (L/[mol/min]). Moreover, in series [7], the “dissociation rate constant k-1” value is 94.67 ± 5.43 × 10^-4 [1/min].

Take `CCC(=O)O[C@]1(C(=O)SCF)[C@H](C)C[C@H]2[C@@H]3C[C@H](F)C4=CC(=O)C=C[C@]4(C)[C@@]3(F)[C@@H](O)C[C@@]21C` [FP, fluticasone propionate]: the “non-specific binding” value in series [2] is reported as “no non-specific binding; also recorded: No adsorption”. Moreover, the “tissue binding … after adsorption” value in series [3] was found to be 3.39 ± 0.06 ng/mg. Moreover, in series [4], the “concentration remaining” value was 1.55 ± 0.13 ng/mg and the “retention / tissue binding” value is listed as “pronounced retention”. Further, in series [8], the “association rate constant k1” value is 21.17 ± 0.56 × 10^5 (L/[mol/min]) and the “dissociation rate constant k-1” value was 10.73 ± 0.65 × 10^-4 [1/min].

With `C[C@@H]1C[C@H]2[C@@H]3CCC4=CC(=O)C=C[C@]4(C)[C@@]3(Cl)[C@@H](O)C[C@]2(C)[C@@]1(OC(=O)c1ccco1)C(=O)CCl` [MF, mometasone furoate], in series [2], the “non-specific binding” value is listed as “did not display non-specific binding to glass”. In addition, the “chemical stability in buffer” value in series [2] (degradation product 9,11-epoxy MF) is recorded as “chemical instability”. Also, the “tissue binding … after adsorption” value in series [3] is on record as 3.65 ± 0.15 ng/mg. Further, in series [4], the “concentration remaining” value is listed as 0.57 ± 0.15 ng/mg and the “retention / tissue binding” value is recorded as “Lowest tissue binding”.

As for `CCC(=O)OCC(=O)[C@@]1(OC(=O)CC)[C@@H](C)C[C@H]2[C@@H]3CCC4=CC(=O)C=C[C@]4(C)[C@@]3(Cl)[C@@H](O)C[C@@]21C` [BDP, beclomethasone-17, 21-dipropionate], in series [1] (human lung tissue, absence of dichlorvos, data not shown), the “concentration in the supernatant in the absence of dichlorvos (control of enzymatic integrity)” value is given as “rapidly decreased”.
